Experimental data: patent US11452731B2, “Method of treating and preventing loss of cognition” (ENDORECHERCHE, INC., priority 2009, dated 2022)
Structures can show the parent of a compound that is named as a salt. Marks after values point to notes of the source that are not given here.

Experiments:
[1] = 26-week treatment of ovariectomized rats: lumbar spine BMD, total body fat, serum cholesterol, ALP (Example 4, experiment 2); assay type: in vivo, rat; details: OVX rats, 26 weeks
Protocol: Ten to twelve week-old female Sprague-Dawley rats (Crl:CD(SD)Br) (Charles River Laboratory, St-Constant, Canada) weighing approximately 220-270 g at start of treatment were used. […] The animals were housed individually and were allowed free access to tap water and a pelleted certified rodent feed (Lab Diet 5002, Ralston Purina, St-Louis, Mo.). Experiments were conducted in an animal facility approved by the Canadian Council on Animal Care (CCAC) and the Association for Assessment and Accreditation of Laboratory Animal Care (AAALAC) in accordance with the CCAC Guide for Care and Use of Experimental Animals. […] Treatments were initiated on day 2 of the study and were performed once daily during 26 weeks. In both experiments, animals not receiving a test article were treated with the appropriate vehicle alone during the same period. […] QDR 4500A, Hologic, Waltham, Mass.) and a Regional High Resolution Scan software. […] Samples were processed for serum preparation and frozen at -80° C. until assay. Serum cholesterol levels and alkaline phospatase activity (ALP) were determined using the Boehringer Mannheim Diagnostic Hitachi 911 Analyzer (Boehringer Mannheim Diagnostic Laboratory Systems).

[2] = Uterine, vaginal and body weight in estrone-supplemented OVX nude mice (Example 1); assay type: in vivo; details: estrone alone
Protocol: DHEA was dissolved in 50% ethanol 50% propylene glycol. […] Tumors were measured once a week with Vernier calipers.

[3] = Uterine and vaginal weight in ovariectomized BALB/c mice treated orally for 9 days with or without estrone (Example 3); assay type: in vivo; details: OVX + E1 alone
Protocol: Female BALB/c mice (BALB/cAnNCrlBR) weighing 18-20 g were obtained from Charles-River, Inc. (St-Constant, Quebec, Canada) and housed 5 per cage in a temperature (23±1° C.)- and light (12 h light/day, lights on at 7:15)-controlled environment. The mice were fed rodent chow and tap water ad libitum. The animals were ovariectomized (OVX) under Isoflurane anesthesia via bilateral flank incisions and randomly assigned to groups of 10 animals. Ten mice were kept intact as controls.
In the second experiment (Table 6), TSE 424 was administered orally by gavage once daily at doses of 1, 3, 10 or 30 μg/animal for 9 days, starting 2 days after ovariectomy. In both experiments, to evaluate the antiestrogenic activity, treatment with estrone (E1, […], s.c. injection, twice daily) was started 5 days post-ovariectomy and was administered for a 6 day-period. Compounds were dissolved in ethanol (4% final concentration) and administered in 0.4% methylcellulose. Mice in the intact and OVX control groups received the vehicle alone (4% ETOH-0.4% methylcellulose) during the 9-day period. The animals were killed by exsanguination at the abdominal aorta on the 11th morning following ovariectomy. The uteri and vagina were rapidly dissected, weighed, and kept in 10% buffered formalin for further histologic examination.

[4] = tested on: ZR-75-1 human breast cancer xenografts; assay: Growth and response of human ZR-75-1 breast tumor xenografts in estrone-supplemented OVX nude mice, DHEA and/or EM-800 for 9.5 months (Example 1); assay type: in vivo
[5] = tested on: ZR-75-1 human breast cancer xenografts; assay: Growth and response of human ZR-75-1 breast tumors in OVX nude mice, 7 antiestrogens for 161 days with or without estrone (Example 8); assay type: in vivo
Protocol: ZR-75-1 human breast cancer cells were obtained from the American Type Culture Collection (Rockville, Md.) and cultured in phenol red-free RPMI-1640 medium. […] (Saint-Constant, Québec, Canada). The mice (5 per cage) were housed in vinyl cages equipped with air filter lids, which were kept in laminar airflow hoods and maintained under pathogen-limiting conditions. The photoperiod was 12 hours of light and 12 hours of darkness (lights on at 07:15). Cages, bedding and food (Agway Pro-Lab R-M-H Diet #4018) were autoclaved before use. Water was autoclaved and provided ad libitum. Bilateral ovariectomy was performed under isoflurane-induced anesthesia. […] Randomization and treatments were started one week later. […] The estrone implants were then removed from the animals in the ovariectomized control group (OVX) and in groups that were to receive the antiestrogen alone. […] Tamoxifen was purchased from […]) while toremifene citrate was purchased from Orion (Espoo, Finland). […] The antiestrogen suspensions at the appropriate concentration were prepared each month, stored at 4° C. and used under constant agitation. Powder stock were hermetically stored at 4° C. […] Two perpendicular diameters were recorded and tumor area (mm2) was calculated using the formula: […] Tumor response was assessed at the end of the study or at death of each animal, if it occurred during the course of the experiment. In this case, only data of mice that survived for at least half of the study ([…]) were used in the tumor response analysis.

[6] = 3-month treatment of ovariectomized rats: lumbar spine BMD, total body fat, serum cholesterol, ALP (Example 4, experiment 1); assay type: in vivo, rat; details: OVX rats, 3 months
Protocol: (§1) Ten to twelve week-old female Sprague-Dawley rats (Crl:CD(SD)Br) (Charles River Laboratory, St-Constant, Canada) weighing approximately 220-270 g at start of treatment were used. The animals were acclimatized to the environmental conditions (temperature: 22±3° C.; humidity: 50±20%; 12-h light-12-h dark cycles, lights on at 07:15 h) for at least 1 week before starting the experiments. The animals were housed individually and were allowed free access to tap water and a pelleted certified rodent feed (Lab Diet 5002, Ralston Purina, St-Louis, Mo.). Experiments were conducted in an animal facility approved by the Canadian Council on Animal Care (CCAC) and the Association for Assessment and Accreditation of Laboratory Animal Care (AAALAC) in accordance with the CCAC Guide for Care and Use of Experimental Animals.
(§2) On day 1 of the study, the animals of the appropriate groups were bilaterally ovariectomized (OVX) under isoflurane anesthesia. The DHEA was applied topically on the dorsal skin as a solution in 50% ethanol-50% propylene glycol while the other tested compounds were administered as suspension in 0.4% methylcellulose by oral gavage. Treatments were initiated on day 2 of the study and were performed once daily during 3 months.
After 3 months (experiment 1) or 26 weeks (experiment 2) of treatment, individual rats under Isoflurane anesthesia had their whole body skeleton and lumbar spine scanned using dual energy x-ray absorptiometry (DEXA; QDR 4500A, Hologic, Waltham, Mass.) and a Regional High Resolution Scan software. The bone mineral density (BMD) of the lumbar spine (vertebrae L2 to L4) and the total body composition (fat percentage) were determined.
After 3 months (experiment 1) or 26 weeks (experiment 2) of treatment, blood samples were collected at the jugular vein from overnight fasted animals (under Isoflurane anesthesia). Samples were processed for serum preparation and frozen at −80° C. until assay. Serum cholesterol levels and alkaline phospatase activity (ALP) were determined using the Boehringer Mannheim Diagnostic Hitachi 911 Analyzer (Boehringer Mannheim Diagnostic Laboratory Systems).

human Ishikawa cells = assay: Alkaline phosphatase activity in human endometrial adenocarcinoma Ishikawa cells (Example 6); details: for Emax: read-out: Maximal stimulation of alkaline phosphatase % of 1 nM E2 stimulation
[7] = Endometrial epithelium thickness in OVX nude mice after 161 days of antiestrogen (Example 8); assay type: in vivo
Excerpt: The 17 groups included two control groups (OVX and OVX+Estrone), seven groups supplemented with an estrone implant and treated with an antiestrogen and eight other groups that received an antiestrogen alone. The estrone implants were then removed from the animals in the ovariectomized control group (OVX) and in groups that were to receive the antiestrogen alone. […] Tamoxifen was purchased from […]) while toremifene citrate was purchased from Orion (Espoo, Finland). […] The antiestrogen suspensions at the appropriate concentration were prepared each month, stored at 4° C. and used under constant agitation. Powder stock were hermetically stored at 4° C. […] After 161 days of treatment, the remaining animals were anesthetized with isoflurane and killed by exsanguination. […] The uteri were prepared to evaluate endometrial thickness by image analysis performed with Image Pro-Plus (Media Cybernetics, Maryland, USA). […] Hematoxylin- and eosin-stained sections of mice uteri were analyzed. […] Mean epithelial cell height was measured in all animals of each group.

[8] = 12-month treatment of ovariectomized rats with DHEA alone or with Flutamide or EM-800: bone histomorphometry, bone markers, serum lipids; assay type: in vivo, rat; details: added to DHEA, OVX rats, 12 months
[9] = 5-week treatment of ovariectomized rats with SERMs alone or with DHEA: BMD of lumbar spine, femur, tibia (Example 5); assay type: in vivo, rat; details: OVX rats, 5 weeks
Protocol: as §1
as §2, with “(Ovx)” for “(OVX)”, “the” for “the other”, “SERMs” for “compounds”, “5 weeks.” for “3 months.”
After 5 weeks of treatment, individual rats under Isoflurane anesthesia had their lumbar spine, femur and tibia scanned using dual energy x-ray absorptiometry (DEXA; QDR 4500A, Hologic, Waltham, Mass.) and a Regional High Resolution Scan software. The bone mineral density (BMD) of the lumbar spine (vertebrae L2 to L4), distal femoral metaphysis (DFM) and proximal tibial metaphysis (PTM) were determined.

[10] = Premarin 0.25 mg/kg, SERMs 2.5 mg/kg
[11] = E2 1 mg/kg, EM-652.HCl 2.5 mg/kg, DHEA 80 mg/kg
[12] = estrone-supplemented, 50 μg daily, 161 days
[13] = Ishikawa cells, 5-day incubation, 1 nM E2

Oc1ccc2c(c1)CC[C@H](c1ccccc1)[C@@H]2c1ccc(OCCN2CCCC2)cc1 (racemic) [Lasofoxifene, (−)-cis-(5R,6S)-6-phenyl-5-[4-(2-pyrrolidin-1-ylethoxy)phenyl]-5,6,7,8-tetrahydronaphthalen-2-ol, D-(−)-tartrate salt]
ALP [1]: 116 ± 9 IU | CHOLESTEROL (serum) [1]: 0.60 ± 0.02 mmol/L | TOTAL FAT [1]: 24.1 ± 1.3 % | reversal of the fat increase induced by estrogen deficiency [1]: 114% | LUMBAR SPINE BMD [1, 10]: 0.2307 ± 0.0040 g/cm^2 | LUMBAR SPINE Prevention of Bone Loss [1, 10]: 61%

C[C@]12CC[C@@H]3c4ccc(O)cc4CC[C@H]3[C@@H]1CCC2=O [E1, estrone]
UTERINE WEIGHT [2]: 132 ± 8 mg | VAGINAL WEIGHT [2]: 31 ± 2 mg | UTERINE WEIGHT [3]: 118.3 ± 6.0 mg | VAGINAL WEIGHT [3]: 53.4 ± 2.8 mg | Category of response: Complete (%) ([4]; E1 0.5 μg alone): 0 (0) % | Category of response: Complete (Number) ([4]; E1 0.5 μg alone): 0 (0) | Category of response: Partial (%) ([4]; E1 0.5 μg alone): 0 (0) % | Category of response: Partial (Number) ([4]; E1 0.5 μg alone): 0 (0) | Category of response: Progression (%) ([4]; E1 0.5 μg alone): 87.5% | Category of response: Progression (Number) ([4]; E1 0.5 μg alone): 14 | Category of response: Stable (%) ([4]; E1 0.5 μg alone): 12.5% | Category of response: Stable (Number) ([4]; E1 0.5 μg alone): 2 | Category of response: Complete (%) ([4]; E1 0.5 μg alone, listed as estrone): 0% | Average tumor weight at end of experiment ([4]; estrone 0.5 μg alone (control E1-supplemented OVX mice)): 1.12 ± 0.26 g | increase in ZR-75-1 tumor size ([4]; estrone 0.5 μg s.c. daily alone, 291 days (9.5 months)): 9.4 fold | increase in ZR-75-1 tumor size ([5]; Estrone alone (OVX+E1), 23 weeks): 707%

CC/C(=C(\c1ccccc1)c1ccc(/C=C/C(=O)O)cc1)c1ccccc1 [GW 5638]
ALP (serum alkaline phosphatase activity) [6]: 72 ± 6 IU/L | CHOLESTEROL (serum) [6]: 1.14 ± 0.08 mmol/L | TOTAL FAT [6]: 21.9 ± 1.4 % | LUMBAR SPINE BMD [6, 11]: 0.2299 ± 0.0060 g/cm^2 | LUMBAR SPINE Prevention of Bone Loss [6, 11]: 34% | increase of average tumor size over baseline (agonistic effect) ([5]; absence of estrone, 200 μg daily, 161 days): did not significantly change | average tumor size above pretreatment values ([5]; estrone-stimulated, 50 μg oral daily, 23 weeks): 227% | progressing tumors, % of tumors [5, 12]: 77% | progressing tumors, number of total [5, 12]: 20 of 26 | Emax (human Ishikawa cells; Homo sapiens, Ishikawa, 120 h): 7.75 ± 5.5% | Inhibition of 1 nM E2-induced stimulation of alkaline phosphatase IC50 (human Ishikawa cells; [13]): No inhibition | inhibition of the stimulatory effect of estrone on epithelial height ([7]; 50 μg daily oral, estrone stimulation): 24% | height of uterine epithelial cells, % of the OVX control group value ([7]; 200 μg daily, absence of estrone): 121% | ENDOMETRIAL EPITHELIUM THICKNESS (μm) ± SEM ([7]; OVX + E1, antiestrogen 50 μg daily): 35.30^b,d ± 0.07 μm | ENDOMETRIAL EPITHELIUM THICKNESS (μm) ± SEM ([7]; OVX without E1, antiestrogen 200 μg daily): 22.22^a ± 0.05 μm

CC(C)C(=O)Nc1ccc([N+](=O)[O-])c(C(F)(F)F)c1 [FLU, Flutamide]
reversal of the stimulatory effect of DHEA on serum alkaline phosphatase [8]: 65%

Cc1c(-c2ccc(O)cc2)n(Cc2ccc(OCCN3CCCCC3)cc2)c2ccc(O)cc12 [ERA-923, 2-(4-hydroxyphenyl)-3-methyl-1-[[4-[2-(1-piperidinyl)ethoxy]phenyl]methyl]-1H-indol-5-ol]
IC50 (human Ishikawa cells; Homo sapiens, Ishikawa, 120 h, read-out: Inhibition of 1 nM E2-induced stimulation of alkaline phosphatase IC50): 5.84 nM | Emax (human Ishikawa cells; Homo sapiens, Ishikawa, 120 h): 0.6% | Maximal inhibition of 1 nM E2-induced stimulation of alkaline phosphatase (human Ishikawa cells; [13]): 100.16 (1) | DISTAL FEMORAL METAPHYSIS (DFM) BMD [9]: 0.2969 ± 0.0029 g/cm^2 | DISTAL FEMORAL METAPHYSIS (DFM) Prevention of Bone Loss [9]: 83% | PROXIMAL TIBIAL METAPHYSIS (PFM) BMD [9]: 0.2805 ± 0.0034 g/cm^2 | PROXIMAL TIBIAL METAPHYSIS (PFM) Prevention of Bone Loss [9]: 91% | LUMBAR SPINE (L2-L4) BMD ([9]; SERMs 2.5 mg/kg, DHEA 80 mg/kg): 0.2214 ± 0.0029 g/cm^2 | LUMBAR SPINE (L2-L4) Prevention of Bone Loss ([9]; SERMs 2.5 mg/kg, DHEA 80 mg/kg): 78%
